Assay results as given in patent publication US9914747B2 (priority 2014, dated 2018).

test system: recombinant NL4-3 virus (NLRluc, Renilla luciferase in nef, Gag P373S); assay: HIV Cell Culture Assay (luciferase reporter virus in MT-2 cells); assay type: cell-based; conditions: NL43, read-out: WT EC50
Description: MT-2 cells and 293T cells were obtained from the NIH AIDS Research and Reference Reagent Program. MT-2 cells were propagated in RPMI 1640 media supplemented with 10% heat inactivated fetal bovine serum, […]. The 293T cells were propagated in DMEM media supplemented with 10% heat inactivated fetal bovine serum (FBS), 100 units/mL penicillin G and 100 μg/mL streptomycin. The proviral DNA clone of NL4-3 was obtained from the NIH AIDS Research and Reference Reagent Program. A recombinant NL4-3 virus, in which a section of the nef gene from NL4-3 was replaced with the Renilla luciferase gene, was used as a reference virus. In addition, residue Gag P373 was converted to P373S. Briefly, the recombinant virus was prepared by transfection of the altered proviral clone of NL4-3. Transfections were performed in 293T cells using LipofectAMINE PLUS from Invitrogen (Carlsbad, Calif.), according to manufacturer's instruction. The virus was titered in MT-2 cells using luciferase enzyme activity as a marker. Luciferase was quantitated using the Dual Luciferase kit from Promega (Madison, Wis.), with modifications to the manufacturer's protocol. The diluted Passive Lysis solution was pre-mixed with the re-suspended Luciferase Assay Reagent and the re-suspended Stop & Glo Substrate (2:1:1 ratio). Fifty (50) […] of the mixture was added to each aspirated well on assay plates and luciferase activity was measured immediately on a Wallac TriLux (Perkin-Elmer). Antiviral activities of inhibitors toward the recombinant virus were quantified by measuring luciferase activity in cells infected for 4-5 days with NLRluc recombinants in the presence serial dilutions of the inhibitor. Biological Data Key for EC50

Row | Compound | EC50 [µM]
1 | C=C(C)[C@@H]1CC[C@]2(/C=C/C(=O)NCCN(C)C)CC[C@]3(C)[C@H](CC[C@@H]4[C@@]5(C)CC=C(c6ccc(C(=O)O)cc6)C(C)(C)[C@@H]5CC[C@]43C)[C@@H]12 [Example 2, 4-((1R,3aR,5aR,5bR,7aR,11aS,11bR,13aR,13bR)-3a-((E)-3-((2-(dimethylamino)ethyl)amino)-3-oxoprop-1-en-1-yl)-5a,5b,8,8,11a-pentamethyl-1-(prop-1-en-2-yl)-2,3,3a,4,5,5a,5b,6,7,7a,8,11,11a,11b,12,13,13a,13b-octadecahydro-1H-cyclopenta[a]chrysen-9-yl)benzoic acid] | > 0.1
2 | C=C(C)[C@@H]1CC[C@]2(/C=C/C(=O)O)CC[C@]3(C)[C@H](CC[C@@H]4[C@@]5(C)CC=C(c6ccc(C(=O)O)cc6)C(C)(C)[C@@H]5CC[C@]43C)[C@@H]12 [Example 1, 4-((1R,3aR,5aR,5bR,7aR,11aS,11bR,13aR,13bR)-3a-((E)-2-carboxyvinyl)-5a,5b,8,8,8,11a-pentamethyl-1-(prop-1-en-2-yl)-2,3,3a,4,5,5a,5b,6,7,7a,8,11,11a,11b,12,13,13a,13b-octadecahydro-1H-cyclopenta[a]chrysen-9-yl)benzoic acid] | 0.02
3 | CC(C)[C@@H]1CC[C@]2([C@H](O)CN(CCN(C)C)Cc3ccc(Cl)cc3)CC[C@]3(C)[C@H](CC[C@@H]4[C@@]5(C)CC=C(C6=CC[C@](CF)(C(=O)O)CC6)C(C)(C)[C@@H]5CC[C@]43C)[C@@H]12 (single isomer, unassigned) [Example 15] | < 0.1
4 | C=C(C)[C@@H]1CC[C@]2(/C=C/C(=O)N3CCS(=O)(=O)CC3)CC[C@]3(C)[C@H](CC[C@@H]4[C@@]5(C)CC=C(c6ccc(C(=O)O)cc6)C(C)(C)[C@@H]5CC[C@]43C)[C@@H]12 [Example 3, 4-((1R,3aR,5aR,5bR,7aR,11aS,11bR,13aR,13bR)-3a-((E)-3-(1,1-dioxidothiomorpholino)-3-oxoprop-1-en-1-yl)-5a,5b,8,8,11a-pentamethyl-1-(prop-1-en-2-yl)-2,3,3a,4,5,5a,5b,6,7,7a,8,11,11a,11b,12,13,13a,13b-octadecahydro-1H-cyclopenta[a]chrysen-9-yl)benzoic acid] | < 0.1
5 | C=C(C)[C@@H]1CC[C@]2(C(=O)C(=O)NCCCN3CCS(=O)(=O)CC3)CC[C@]3(C)[C@H](CC[C@@H]4[C@@]5(C)CC=C(c6ccc(C(=O)O)cc6)C(C)(C)[C@@H]5CC[C@]43C)[C@@H]12 [Example 8, 4-((1R,3aS,5aR,5bR,7aR,11aS,11bR,13aR,13bR)-3a-(2-((3-(1,1-dioxidothiomorpholino)propyl)amino)-2-oxoacetyl)-5a,5b,8,8,11a-pentamethyl-1-(prop-1-en-2-yl)-2,3,3a,4,5,5a,5b,6,7,7a,8,11,11a,11b,12,13,13a,13b-octadecahydro-1H-cyclopenta[a]chrysen-9-yl)benzoic acid] | < 0.1
6 | CC(C)[C@@H]1CC[C@]2(C(O)CNCCN(C)C)CC[C@]3(C)[C@H](CC[C@@H]4[C@@]5(C)CC=C(C6=CC[C@](CF)(C(=O)O)CC6)C(C)(C)[C@@H]5CC[C@]43C)[C@@H]12 (single isomer, unassigned) [Example 14] | < 0.1
7 | C=C(C)[C@@H]1CC[C@]2(CCN3CCS(=O)(=O)CC3)CC[C@]3(C)[C@H](CC[C@@H]4[C@@]5(C)CC=C(c6ccc(C(=O)O)cc6)C(C)(C)[C@@H]5CC[C@]43C)[C@@H]12 [Example 10, 4-((1R,3aR,5aR,5bR,7aR,11aS,11bR,13aR,13bR)-3a-(2-(1,1-dioxidothiomorpholino)ethyl)-5a,5b,8,8,11a-pentamethyl-1-(prop-1-en-2-yl)-2,3,3a,4,5,5a,5b,6,7,7a,8,11,11a,11b,12,13,13a,13b-octadecahydro-1H-cyclopenta[a]chrysen-9-yl)benzoic acid] | < 0.1
8 | C=C(C)[C@@H]1CC[C@]2(/C=C/C(=O)N(C)OC)CC[C@]3(C)[C@H](CC[C@@H]4[C@@]5(C)CC=C(c6ccc(C(=O)O)cc6)C(C)(C)[C@@H]5CC[C@]43C)[C@@H]12 [Example 5, 4-((1R,3aR,5aR,5bR,7aR,11aS,11bR,13aR,13bR)-3a-((E)-3-(methoxy(methyl)amino)-3-oxoprop-1-en-1-yl)-5a,5b,8,8,11a-pentamethyl-1-(prop-1-en-2-yl)-2,3,3a,4,5,5a,5b,6,7,7a,8,11,11a,11b,12,13,13a,13b-octadecahydro-1H-cyclopenta[a]chrysen-9-yl)benzoic acid] | < 0.1
9 | C=C(C)[C@@H]1CC[C@]2(CCC(=O)N3CCS(=O)(=O)CC3)CC[C@]3(C)[C@H](CC[C@@H]4[C@@]5(C)CC=C(c6ccc(C(=O)O)cc6)C(C)(C)[C@@H]5CC[C@]43C)[C@@H]12 [Example 7, 4-((1R,3aR,5aR,5bR,7aR,11aS,11bR,13aR,13bR)-3a-(3-(1,1-dioxidothiomorpholino)-3-oxopropyl)-5a,5b,8,8,11a-pentamethyl-1-(prop-1-en-2-yl)-2,3,3a,4,5,5a,5b,6,7,7a,8,11,11a,11b,12,13,13a,13b-octadecahydro-1H-cyclopenta[a]chrysen-9-yl)benzoic acid] | 0.00566
10 | C=C(C)[C@@H]1CC[C@]2(/C=C/C(=O)NCCCN3CCS(=O)(=O)CC3)CC[C@]3(C)[C@H](CC[C@@H]4[C@@]5(C)CC=C(c6ccc(C(=O)O)cc6)C(C)(C)[C@@H]5CC[C@]43C)[C@@H]12 [Example 4, 4-((1R,3aR,5aR,5bR,7aR,11aS,11bR,13aR,13bR)-3a-((E)-3-((3-(1,1-dioxidothiomorpholino)propyl)amino)-3-oxoprop-1-en-1-yl)-5a,5b,8,8,11a-pentamethyl-1-(prop-1-en-2-yl)-2,3,3a,4,5,5a,5b,6,7,7a,8,11,11a,11b,12,13,13a,13b-octadecahydro-1H-cyclopenta[a]chrysen-9-yl)benzoic acid] | > 0.1
11 | C=C(C)[C@@H]1CC[C@]2(CCN(C)CCN3CCS(=O)(=O)CC3)CC[C@]3(C)[C@H](CC[C@@H]4[C@@]5(C)CC=C(c6ccc(C(=O)O)cc6)C(C)(C)[C@@H]5CC[C@]43C)[C@@H]12 [Example 12, 4-((1R,3aR,5aR,5bR,7aR,11aS,11bR,13aR,13bR)-3a-(2-((2-(1,1-dioxidothiomorpholino)ethyl)(methyl)amino)ethyl)-5a,5b,8,8,11a-pentamethyl-1-(prop-1-en-2-yl)-2,3,3a,4,5,5a,5b,6,7,7a,8,11,11a,11b,12,13,13a,13b-octadecahydro-1H-cyclopenta[a]chrysen-9-yl)benzoic acid] | < 0.1
12 | C=C(C)[C@@H]1CC[C@]2(CCNCCN3CCS(=O)(=O)CC3)CC[C@]3(C)[C@H](CC[C@@H]4[C@@]5(C)CC=C(c6ccc(C(=O)O)cc6)C(C)(C)[C@@H]5CC[C@]43C)[C@@H]12 [Example 11, 4-((1R,3aR,5aR,5bR,7aR,11aS,11bR,13aR,13bR)-3a-(2-((2-(1,1-dioxidothiomorpholino)ethyl)amino)ethyl)-5a,5b,8,8,11a-pentamethyl-1-(prop-1-en-2-yl)-2,3,3a,4,5,5a,5b,6,7,7a,8,11,11a,11b,12,13,13a,13b-octadecahydro-1H-cyclopenta[a]chrysen-9-yl)benzoic acid] | 0.00124
13 | C=C(C)[C@@H]1CC[C@]2(/C=C/CN3CCS(=O)(=O)CC3)CC[C@]3(C)[C@H](CC[C@@H]4[C@@]5(C)CC=C(c6ccc(C(=O)O)cc6)C(C)(C)[C@@H]5CC[C@]43C)[C@@H]12 [Example 6, 4-((1R,3aR,5aR,5bR,7aR,11aS,11bR,13aR,13bR)-3a-((E)-3-(1,1-dioxidothiomorpholino)prop-1-en-1-yl)-5a,5b,8,8,11a-pentamethyl-1-(prop-1-en-2-yl)-2,3,3a,4,5,5a,5b,6,7,7a,8,11,11a,11b,12,13,13a,13b-octadecahydro-1H-cyclopenta[a]chrysen-9-yl)benzoic acid] | < 0.1
14 | CC(C)[C@@H]1CC[C@]2([C@@H](O)CN(CCN(C)C)Cc3ccc(Cl)cc3)CC[C@]3(C)[C@H](CC[C@@H]4[C@@]5(C)CC=C(C6=CC[C@](CF)(C(=O)O)CC6)C(C)(C)[C@@H]5CC[C@]43C)[C@@H]12 (single isomer, unassigned) [Example 16] | 0.13
15 | C=C(C)[C@@H]1CC[C@]2(C(=O)C(=O)NCCN3CCS(=O)(=O)CC3)CC[C@]3(C)[C@H](CC[C@@H]4[C@@]5(C)CC=C(c6ccc(C(=O)O)cc6)C(C)(C)[C@@H]5CC[C@]43C)[C@@H]12 [Example 9, 4-((1R,3aS,5aR,5bR,7aR,11aS,11bR,13aR,13bR)-3a-(2-((2-(1,1-dioxidothiomorpholino)ethyl)amino)-2-oxoacetyl)-5a,5b,8,8,11a-pentamethyl-1-(prop-1-en-2-yl)-2,3,3a,4,5,5a,5b,6,7,7a,8,11,11a,11b, 12,13,13a,13b-octadecahydro-1H-cyclopenta[a]chrysen-9-yl)benzoic acid] | < 0.1
